The source made the active and inactive calls.
Columns and labels:
Rattus norvegicus [1] = test: Analgesic activity in Sprague-Dawley rat normal foot assessed as response threshold at 32 mg/kg, po; assay type: functional
Rattus norvegicus [2] = test: Analgesic activity in Sprague-Dawley rat brewer's yeast treated foot assessed as response threshold at 8 to 16 mg/kg, po; assay type: functional; details: dose mg/kg 8-16
Rattus norvegicus [3] = test: Analgesic activity in Sprague-Dawley rat brewer's yeast treated foot assessed as response threshold at 16 to 32 mg/kg, po; assay type: functional; details: dose mg/kg 16-32
Rattus norvegicus [4] = test: Analgesic activity in Sprague-Dawley rat normal foot assessed as response threshold at 16 to 32 mg/kg, po; assay type: functional; details: dose mg/kg 16-32
Rattus norvegicus [5] = test: Analgesic activity in Sprague-Dawley rat assessed as increase in mean reaction time at 120 mg/kg, po after 2 hrs relative to control; assay type: functional
Rattus norvegicus [6] = test: Analgesic activity in Sprague-Dawley rat assessed as increase in mean reaction time at 90 mg/kg, po after 5 hrs relative to control; assay type: functional
Rattus norvegicus [7] = test: Analgesic activity in Sprague-Dawley rat assessed as increase in mean reaction time at 30 mg/kg, po after 1 hr relative to control; assay type: functional
Rattus norvegicus [8] = test: Analgesic activity in Sprague-Dawley rat assessed as increase in mean reaction time at 90 mg/kg, po after 2 hrs relative to control; assay type: functional
Mus musculus [9] = test: Analgesic activity in mouse assessed as withdrawal latency at 12.5 to 75 mg/kg, po by Haffner tail clamp method; assay type: functional, organism-based
Mus musculus [10] = test: Analgesic activity in naloxone treated mouse assessed as withdrawal latency at 12.5 to 75 mg/kg, po; assay type: functional, organism-based
Rattus norvegicus [11] = test: Analgesic activity in Sprague-Dawley rat assessed as increase in mean reaction time at 120 mg/kg, po after 1 hr relative to control; assay type: functional
Rattus norvegicus [12] = test: Analgesic activity in Sprague-Dawley rat assessed as increase in mean reaction time at 30 mg/kg, po after 4 hrs relative to control; assay type: functional
Rattus norvegicus [13] = test: Analgesic activity in Sprague-Dawley rat assessed as increase in mean reaction time at 60 mg/kg, po after 3 hrs relative to control; assay type: functional
Rattus norvegicus [14] = test: Analgesic activity in Sprague-Dawley rat assessed as increase in mean reaction time at 60 mg/kg, po after 4 hrs relative to control; assay type: functional
Rattus norvegicus [15] = test: Analgesic activity in Sprague-Dawley rat assessed as increase in mean reaction time at 120 mg/kg, po after 5 hrs relative to control; assay type: functional
Rattus norvegicus [16] = test: Analgesic activity in Sprague-Dawley rat assessed as increase in mean reaction time at 120 mg/kg, po after 4 hrs relative to control; assay type: functional
Rattus norvegicus [17] = test: Analgesic activity in Sprague-Dawley rat assessed as increase in mean reaction time at 30 mg/kg, po after 5 hrs relative to control; assay type: functional
Rattus norvegicus [18] = test: Analgesic activity in Sprague-Dawley rat assessed as increase in mean reaction time at 60 mg/kg, po after 1 hr relative to control; assay type: functional
Rattus norvegicus [19] = test: Analgesic activity in Sprague-Dawley rat assessed as increase in mean reaction time at 60 mg/kg, po after 2 hrs relative to control; assay type: functional
Rattus norvegicus [20] = test: Antiarthritic activity in Lewis rat assessed as inhibition of adjuvant-induced paw swelling at 50 mg/kg, po qd for 13 days measured on day 14; assay type: functional
Rattus norvegicus [21] = test: Toxicity in Sprague-Dawley rat assessed as sedation at 90 mg/kg, po after 5 hrs relative to control; assay type: organism-based; set-up: dose 90 mg/kg, route oral; details: in vivo
Rattus norvegicus [22] = test: Toxicity in Sprague-Dawley rat assessed as sedation at 90 mg/kg, po after 3 hrs relative to control; assay type: organism-based; set-up: dose 90 mg/kg, route oral; details: in vivo
Rattus norvegicus [23] = test: Toxicity in Sprague-Dawley rat assessed as sedation at 90 mg/kg, po after 1 hr relative to control; assay type: organism-based; set-up: dose 90 mg/kg, route oral; details: in vivo
Rattus norvegicus [24] = test: Analgesic activity in Sprague-Dawley rat assessed as increase in mean reaction time at 90 mg/kg, po after 3 hrs relative to control; assay type: functional
Rattus norvegicus [25] = test: Analgesic activity in Sprague-Dawley rat assessed as increase in mean reaction time at 60 mg/kg, po after 5 hrs relative to control; assay type: functional
Rattus norvegicus [26] = test: Analgesic activity in Sprague-Dawley rat assessed as increase in mean reaction time at 30 mg/kg, po after 2 hrs relative to control; assay type: functional
Rattus norvegicus [27] = test: Toxicity in Sprague-Dawley rat assessed as sedation at 90 mg/kg, po after 4 hrs relative to control; assay type: organism-based; set-up: dose 90 mg/kg, route oral; details: in vivo
Rattus norvegicus [28] = test: Analgesic activity in Sprague-Dawley rat assessed as increase in mean reaction time at 30 mg/kg, po after 3 hrs relative to control; assay type: functional
Rattus norvegicus [29] = test: Antiinflammatory activity in Sprague-Dawley rat assessed as inhibition of carrageenan-induced paw edema at 30 mg/kg, po; assay type: functional
Rattus norvegicus [30] = test: Analgesic activity in Sprague-Dawley rat assessed as increase in mean reaction time at 90 mg/kg, po after 4 hrs relative to control; assay type: functional
Rattus norvegicus [31] = test: Analgesic activity in Sprague-Dawley rat assessed as increase in mean reaction time at 120 mg/kg, po after 3 hrs relative to control; assay type: functional
Rattus norvegicus [32] = test: Analgesic activity in Sprague-Dawley rat assessed as increase in mean reaction time at 90 mg/kg, po after 1 hr relative to control; assay type: functional
Rattus norvegicus [33] = test: Toxicity in Sprague-Dawley rat assessed as sedation at 90 mg/kg, po after 2 hrs relative to control; assay type: organism-based; set-up: dose 90 mg/kg, route oral; details: in vivo
Rattus norvegicus [34] = test: Analgesic activity in Sprague-Dawley rat normal foot assessed as response threshold at 8 to 16 mg/kg, po; assay type: functional; details: dose mg/kg 8-16

Fc1ccccc1-n1nnc2cccnc21
Activity (Rattus norvegicus [1]): <40 mm
Activity (Rattus norvegicus [2]): >25 mm

Fc1ccc(F)c(-n2nnc3cccnc32)c1
Activity (Rattus norvegicus [1]): <40 mm
Activity (Rattus norvegicus [3]): >25 mm

Fc1ccc(-n2nnc3cccnc32)c(F)c1
Activity (Rattus norvegicus [4]): >40 mm
Activity (Rattus norvegicus [2]): >25 mm

CCC(=O)O[C@](Cc1ccccc1)(c1ccccc1)[C@H](C)CN(C)C [PROPOXYPHENE]
Time (Rattus norvegicus [5]): 30 s
Time (Rattus norvegicus [6]): 10.5 s
Time (Rattus norvegicus [7]): -3.2 s
Time (Rattus norvegicus [8]): 42 s
Activity (Mus musculus [9]): Active
Activity (Mus musculus [10]): inactive
Time (Rattus norvegicus [11]): 41.9 s
Time (Rattus norvegicus [12]): -0.8 s
Time (Rattus norvegicus [13]): -2.4 s
Time (Rattus norvegicus [14]): -0.8 s
Time (Rattus norvegicus [15]): 3.6 s
Time (Rattus norvegicus [16]): 15 s
Time (Rattus norvegicus [17]): 0.1 s
Time (Rattus norvegicus [18]): -3 s
Time (Rattus norvegicus [19]): -0.8 s
inhibition in vivo at 50 mg/kg (Rattus norvegicus [20]): 56.2%
Activity (Rattus norvegicus [21]): Toxic
Activity (Rattus norvegicus [22]): Toxic
Activity (Rattus norvegicus [1]): 40 mm
Activity (Rattus norvegicus [23]): Toxic
Time (Rattus norvegicus [24]): 40.7 s
Time (Rattus norvegicus [25]): -1.1 s
Activity (Rattus norvegicus [3]): >25 mm
Time (Rattus norvegicus [26]): -2.6 s
Activity (Rattus norvegicus [27]): Toxic
Time (Rattus norvegicus [28]): -4.4 s
inhibition in vivo at 30 mg/kg (Rattus norvegicus [29]): 23%
Time (Rattus norvegicus [30]): 36.4 s
Time (Rattus norvegicus [31]): 24.5 s
Time (Rattus norvegicus [32]): 40.6 s
Activity (Rattus norvegicus [33]): Toxic

O=c1n(CC2CC2)c2cccnc2n1-c1ccc2c(c1)OCO2
Activity (Rattus norvegicus [4]): >40 mm
Activity (Rattus norvegicus [3]): >25 mm

C=C(Cl)Cn1c(=O)n(-c2ccc3c(c2)OCO3)c2ncccc21
Activity (Rattus norvegicus [4]): >40 mm
Activity (Rattus norvegicus [3]): >25 mm

CC(C)(C)Oc1nc2cccnc2n1-c1ccc2c(c1)OCO2
Activity (Rattus norvegicus [1]): <40 mm
Activity (Rattus norvegicus [2]): >25 mm

Cc1ccc(-n2c(=O)[nH]c3cccnc32)c(C)c1
Activity (Rattus norvegicus [1]): <40 mm
Activity (Rattus norvegicus [3]): >25 mm

O=c1n(-c2ccc3c(c2)OCO3)c2ncccc2n1C1CCCC1
Activity (Rattus norvegicus [4]): >40 mm
Activity (Rattus norvegicus [2]): >25 mm

CCCn1c(=O)n(-c2ccc3c(c2)OCO3)c2ncccc21
Activity (Rattus norvegicus [34]): >50 mm
Activity (Rattus norvegicus [2]): >25 mm

O=c1[nH]c2cccnc2n1-c1ccccc1
Activity (Rattus norvegicus [1]): 40 mm
Activity (Rattus norvegicus [2]): >25 mm

CC(C)Cn1c(=O)n(-c2ccc3c(c2)OCO3)c2ncccc21
Activity (Rattus norvegicus [1]): <40 mm
Activity (Rattus norvegicus [3]): >25 mm

Cn1c(=O)n(-c2ccc3c(c2)OCO3)c2ncccc21
Activity (Rattus norvegicus [34]): >50 mm
Activity (Rattus norvegicus [3]): >25 mm

O=c1n(CCO)c2cccnc2n1-c1ccc2c(c1)OCO2
Activity (Rattus norvegicus [4]): >40 mm
Activity (Rattus norvegicus [2]): >25 mm

CC(O)Cn1c(=O)n(-c2ccc3c(c2)OCO3)c2ncccc21 (stereo unspecified)
Activity (Rattus norvegicus [1]): 40 mm
Activity (Rattus norvegicus [3]): >25 mm

CCCn1c(=O)n(-c2ccccc2)c2ncccc21
Activity (Rattus norvegicus [1]): 40 mm
Activity (Rattus norvegicus [3]): >25 mm

Reference: ChEMBL document CHEMBL3244164, “Synthesis and analgesic activity of 1,3-dihydro-3-(substituted phenyl)imidazo[4,5-b]pyridin-2-ones and 3-(substituted phenyl)-1,2,3-triazolo[4,5-b]pyridines” (J Med Chem, 1978)
